Legend:
[1] = target: D(3) dopamine receptor (Homo sapiens, UniProt P35462); assay: DRUGMATRIX: Dopamine D3 radioligand binding (ligand: [3H] Spiperone); type: cell membranes, CHO, Membrane
[2] = target: T1, Muscarinic acetylcholine receptor M4 (Homo sapiens, UniProt P08173); type: cell membranes, CHO-K1, Membrane; conditions: cho-k1; further: in other assays of this panel Not Active means under 50% inhibition at 10 µM
T1 sequence (P08173 whole entry): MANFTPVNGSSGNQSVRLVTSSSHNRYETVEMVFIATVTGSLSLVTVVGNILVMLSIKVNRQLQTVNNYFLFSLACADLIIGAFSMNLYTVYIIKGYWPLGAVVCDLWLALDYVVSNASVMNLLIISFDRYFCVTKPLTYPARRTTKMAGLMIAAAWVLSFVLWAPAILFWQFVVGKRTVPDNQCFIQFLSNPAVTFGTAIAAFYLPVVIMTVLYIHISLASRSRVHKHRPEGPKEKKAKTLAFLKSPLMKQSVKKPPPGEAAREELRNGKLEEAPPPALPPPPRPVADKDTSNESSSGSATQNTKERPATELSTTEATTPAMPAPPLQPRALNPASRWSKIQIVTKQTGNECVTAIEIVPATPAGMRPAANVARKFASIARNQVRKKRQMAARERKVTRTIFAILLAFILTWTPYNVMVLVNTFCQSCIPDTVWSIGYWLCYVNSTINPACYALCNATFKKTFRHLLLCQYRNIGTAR

[3] = target: Cannabinoid receptor 1 (Homo sapiens, UniProt P21554); type: cell membranes, Membrane; conditions: chem-1; further: in other assays of this panel Not Active means under 50% inhibition at 10 µM
[4] = target: Delta-type opioid receptor (Homo sapiens, UniProt P41143); type: cell membranes, HEK293, Membrane; conditions: hek293; further: in other assays of this panel Not Active means under 50% inhibition at 10 µM
[5] = target: T2, Neutrophil elastase (Homo sapiens, UniProt P08246); type: tissue-based;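 further: inhibition of neutrophil elastase enzyme activity, measured with a p-nitroanilide-linked peptide substrate; in other assays of this panel Not Active means under 50% inhibition at 10 µM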
T2 sequence (P08246 whole entry): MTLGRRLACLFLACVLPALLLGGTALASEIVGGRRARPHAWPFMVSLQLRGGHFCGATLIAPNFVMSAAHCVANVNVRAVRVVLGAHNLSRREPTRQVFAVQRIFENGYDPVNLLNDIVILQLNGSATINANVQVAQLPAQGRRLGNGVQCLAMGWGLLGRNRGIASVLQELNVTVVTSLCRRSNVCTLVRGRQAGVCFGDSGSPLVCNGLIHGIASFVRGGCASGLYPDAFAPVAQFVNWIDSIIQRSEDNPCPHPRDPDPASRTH

[6] = target: T3, 5-hydroxytryptamine receptor 1A (Rattus norvegicus, UniProt P19327); type: cell membranes, CHO-K1, Membrane; conditions: for Ki: read-out: Ki
T3 sequence (P19327 whole entry): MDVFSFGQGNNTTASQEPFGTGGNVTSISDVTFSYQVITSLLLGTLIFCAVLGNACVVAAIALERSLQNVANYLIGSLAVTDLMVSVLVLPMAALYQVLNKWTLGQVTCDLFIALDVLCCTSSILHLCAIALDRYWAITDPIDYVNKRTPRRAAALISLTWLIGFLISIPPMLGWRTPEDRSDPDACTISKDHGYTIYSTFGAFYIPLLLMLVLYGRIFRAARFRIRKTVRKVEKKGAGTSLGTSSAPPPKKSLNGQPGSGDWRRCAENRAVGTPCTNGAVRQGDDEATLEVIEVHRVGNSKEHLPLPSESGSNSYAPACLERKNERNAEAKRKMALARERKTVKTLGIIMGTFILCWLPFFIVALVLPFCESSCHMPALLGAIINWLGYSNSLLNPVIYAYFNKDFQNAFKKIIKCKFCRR

[7] = DRUGMATRIX: Phosphodiesterase PDE3 enzyme inhibition (substrate: [3H]cAMP + cAMP); type: tissue-based, Homo sapiens; conditions: platelet; Not Active = under 50% inhibition at 10 µM
[8] = target: T4, Endothelin-1 receptor (Homo sapiens, UniProt P25101); type: cell membranes, Membrane; conditions: cho-k1; further: in other assays of this panel Not Active means under 50% inhibition at 10 µM
T4 sequence (P25101 whole entry): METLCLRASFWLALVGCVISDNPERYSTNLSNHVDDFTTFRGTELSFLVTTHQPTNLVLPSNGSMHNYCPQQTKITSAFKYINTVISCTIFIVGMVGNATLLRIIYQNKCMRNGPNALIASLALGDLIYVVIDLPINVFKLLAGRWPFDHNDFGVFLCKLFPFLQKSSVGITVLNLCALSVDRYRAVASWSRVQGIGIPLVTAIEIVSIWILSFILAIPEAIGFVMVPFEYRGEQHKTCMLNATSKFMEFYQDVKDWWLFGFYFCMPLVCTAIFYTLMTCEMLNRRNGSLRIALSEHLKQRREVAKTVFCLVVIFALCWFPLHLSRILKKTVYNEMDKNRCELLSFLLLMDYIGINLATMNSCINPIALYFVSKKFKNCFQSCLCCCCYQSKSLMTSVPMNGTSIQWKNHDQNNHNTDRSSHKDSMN

[9] = DRUGMATRIX: Glutamate, Kainate radioligand binding (ligand: [3H] Kainic acid); type: cell membranes, Rattus norvegicus, Wistar, Brain, Membrane; conditions: Not Active = under 50% inhibition at 10 µM
[10] = target: D(1A) dopamine receptor (Homo sapiens, UniProt P21728); assay: DRUGMATRIX: Dopamine D1 radioligand binding (ligand: [3H] SCH-23390); type: cell membranes, CHO, Membrane; conditions: Not Active = under 50% inhibition at 10 µM
[11] = target: Acetylcholinesterase (Homo sapiens, UniProt P22303); assay: DRUGMATRIX: Acetylcholinesterase enzyme inhibition (substrate: acetylthiocholine); type: cell-based, HEK293; conditions: Not Active = under 50% inhibition at 10 µM
[12] = target: T5, Neuropeptide Y receptor type 1 (Homo sapiens, UniProt P25929); type: cell membranes, Membrane; conditions: sk-n-mc; further: in other assays of this panel Not Active means under 50% inhibition at 10 µM
T5 sequence (P25929 whole entry): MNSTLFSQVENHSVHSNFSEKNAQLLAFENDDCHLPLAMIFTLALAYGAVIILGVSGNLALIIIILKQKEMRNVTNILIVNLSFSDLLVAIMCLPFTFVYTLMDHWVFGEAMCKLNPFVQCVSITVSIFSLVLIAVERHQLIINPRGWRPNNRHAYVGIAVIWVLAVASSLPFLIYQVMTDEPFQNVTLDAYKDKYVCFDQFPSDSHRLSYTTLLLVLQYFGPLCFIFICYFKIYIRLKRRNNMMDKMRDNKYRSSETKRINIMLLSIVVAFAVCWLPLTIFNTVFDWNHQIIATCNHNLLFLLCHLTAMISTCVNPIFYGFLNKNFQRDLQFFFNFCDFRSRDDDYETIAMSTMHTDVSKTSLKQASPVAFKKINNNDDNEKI

[13] = DRUGMATRIX: Calcium Channel Type L, Benzothiazepine radioligand binding (ligand: [3H] Diltiazem); type: cell membranes, Rattus norvegicus, Wistar, Brain, Membrane; conditions: Not Active = under 50% inhibition at 10 µM

Chain of Cannabinoid receptor 1 (P21554 whole entry): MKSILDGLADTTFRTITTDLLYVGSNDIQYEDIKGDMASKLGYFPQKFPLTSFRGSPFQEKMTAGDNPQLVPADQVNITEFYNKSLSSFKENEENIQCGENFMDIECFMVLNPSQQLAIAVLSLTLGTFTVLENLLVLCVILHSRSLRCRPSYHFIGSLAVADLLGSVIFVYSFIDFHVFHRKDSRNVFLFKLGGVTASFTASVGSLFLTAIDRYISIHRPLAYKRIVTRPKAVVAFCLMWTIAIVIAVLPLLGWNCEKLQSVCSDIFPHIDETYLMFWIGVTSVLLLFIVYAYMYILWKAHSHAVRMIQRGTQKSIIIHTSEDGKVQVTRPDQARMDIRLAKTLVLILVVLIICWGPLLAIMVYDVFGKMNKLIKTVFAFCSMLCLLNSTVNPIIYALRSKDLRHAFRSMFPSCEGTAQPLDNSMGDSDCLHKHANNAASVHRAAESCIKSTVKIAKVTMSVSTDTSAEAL
Chain of D(1A) dopamine receptor (P21728 whole entry): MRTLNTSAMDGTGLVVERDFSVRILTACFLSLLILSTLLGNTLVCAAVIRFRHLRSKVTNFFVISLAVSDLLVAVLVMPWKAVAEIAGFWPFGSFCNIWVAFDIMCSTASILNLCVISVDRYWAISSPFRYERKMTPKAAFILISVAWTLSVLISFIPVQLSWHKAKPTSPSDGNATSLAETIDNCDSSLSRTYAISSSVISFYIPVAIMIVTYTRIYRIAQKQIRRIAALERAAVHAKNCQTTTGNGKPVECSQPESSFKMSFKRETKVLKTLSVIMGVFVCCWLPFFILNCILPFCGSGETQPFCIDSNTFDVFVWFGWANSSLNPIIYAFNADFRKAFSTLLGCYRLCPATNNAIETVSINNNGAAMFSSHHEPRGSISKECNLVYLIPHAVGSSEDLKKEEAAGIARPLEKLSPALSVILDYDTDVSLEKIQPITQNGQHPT
Chain of Delta-type opioid receptor (P41143 whole entry): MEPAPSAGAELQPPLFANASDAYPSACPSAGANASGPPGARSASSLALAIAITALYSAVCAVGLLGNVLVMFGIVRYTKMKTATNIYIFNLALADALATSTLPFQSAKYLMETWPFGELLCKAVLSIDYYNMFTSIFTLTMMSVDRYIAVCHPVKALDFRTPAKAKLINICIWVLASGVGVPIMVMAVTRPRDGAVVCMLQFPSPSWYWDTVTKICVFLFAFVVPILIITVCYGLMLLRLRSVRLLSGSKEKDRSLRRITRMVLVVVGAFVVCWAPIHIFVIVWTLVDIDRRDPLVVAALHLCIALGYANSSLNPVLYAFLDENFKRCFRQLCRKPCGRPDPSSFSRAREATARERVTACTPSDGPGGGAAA
Chain of D(3) dopamine receptor (P35462 whole entry): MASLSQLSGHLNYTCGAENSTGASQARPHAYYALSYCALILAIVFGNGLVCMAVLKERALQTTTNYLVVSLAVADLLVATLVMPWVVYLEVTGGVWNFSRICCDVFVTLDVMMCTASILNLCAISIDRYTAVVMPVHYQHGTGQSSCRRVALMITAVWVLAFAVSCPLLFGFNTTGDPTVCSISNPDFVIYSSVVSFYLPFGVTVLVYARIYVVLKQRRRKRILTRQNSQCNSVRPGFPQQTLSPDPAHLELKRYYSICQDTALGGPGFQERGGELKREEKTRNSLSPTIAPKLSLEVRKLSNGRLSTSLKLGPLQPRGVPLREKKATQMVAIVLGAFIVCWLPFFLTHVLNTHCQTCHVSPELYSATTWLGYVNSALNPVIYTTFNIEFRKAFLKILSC
Chain of Acetylcholinesterase (P22303 whole entry): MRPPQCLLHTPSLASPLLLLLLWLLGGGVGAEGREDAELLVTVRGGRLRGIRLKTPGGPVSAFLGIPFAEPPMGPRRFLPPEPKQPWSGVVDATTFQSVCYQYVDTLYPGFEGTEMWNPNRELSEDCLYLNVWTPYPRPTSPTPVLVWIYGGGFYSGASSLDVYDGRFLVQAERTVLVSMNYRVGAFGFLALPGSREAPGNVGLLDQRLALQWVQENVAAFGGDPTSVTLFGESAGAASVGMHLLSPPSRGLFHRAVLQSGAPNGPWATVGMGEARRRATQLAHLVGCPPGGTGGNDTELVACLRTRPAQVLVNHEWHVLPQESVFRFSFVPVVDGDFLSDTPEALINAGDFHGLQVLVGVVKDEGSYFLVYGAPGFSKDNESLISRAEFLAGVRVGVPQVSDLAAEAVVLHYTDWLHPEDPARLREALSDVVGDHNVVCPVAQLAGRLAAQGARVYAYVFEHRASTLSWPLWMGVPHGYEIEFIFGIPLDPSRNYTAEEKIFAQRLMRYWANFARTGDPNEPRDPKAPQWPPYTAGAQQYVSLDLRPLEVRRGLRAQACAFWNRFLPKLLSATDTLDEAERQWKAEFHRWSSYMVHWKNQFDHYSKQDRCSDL

Row | SMILES | IC50 ([1]; cho) | IC50 [2] | IC50 [3] | IC50 [4] | IC50 [5] | IC50 ([6]; cho-k1) | IC50 [7] | Ki [7] | IC50 [8] | IC50 [9] | Ki [9] | IC50 ([10]; cho) | IC50 ([11]; hek293) | IC50 [12] | IC50 [13] | Ki [13] | also measured
1 | COc1ccc2cc(CC(=O)O)ccc2c1 | Not Active | Not Active | Not Active | Not Active | Not Active | Not Active | Not Active | Not Active | Not Active | Not Active | Not Active | Not Active | Not Active | Not Active | Not Active | Not Active | –
2 | CC(C)NC[C@H](O)COc1cccc2[nH]ccc12 | Not Active | Not Active | Not Active | Not Active | Not Active | – | Not Active | Not Active | Not Active | Not Active | Not Active | Not Active | Not Active | Not Active | Not Active | Not Active | IC50 ([6]; read-out: IC50): 28 nM; Ki [6]: 16 nM
3 | c1ccc2c(c1)cc1ccc3cccc4ccc2c1c34 | Not Active | Not Active | Not Active | Not Active | Not Active | Not Active | Not Active | Not Active | Not Active | Not Active | Not Active | Not Active | – | Not Active | Not Active | Not Active | IC50 ([11]; read-out: IC50): 28000 nM
4 | CC(/C=C1\SC(=S)N(CC(=O)O)C1=O)=C\c1ccccc1 | Not Active | Not Active | Not Active | Not Active | Not Active | Not Active | Not Active | Not Active | Not Active | Not Active | Not Active | Not Active | Not Active | Not Active | Not Active | Not Active | –
5 | C/C=C1\[C@H]2C=C(C)C[C@]1(N)c1ccc(=O)[nH]c1C2 [HUPERZINE A] | Not Active | Not Active | Not Active | Not Active | Not Active | Not Active | Not Active | Not Active | Not Active | Not Active | Not Active | Not Active | – | Not Active | Not Active | Not Active | –
6 | CNCCC=C1c2ccccc2CCc2ccccc21 [NORTRIPTYLINE] | – | – | Not Active | Not Active | Not Active | – | Not Active | Not Active | Not Active | Not Active | Not Active | – | Not Active | Not Active | – | – | IC50 ([1]; read-out: IC50): 179 nM; Ki ([1]; read-out: Ki): 61 nM; IC50 ([6]; read-out: IC50): 1870 nM; Ki [6]: 1070 nM; IC50 ([10]; read-out: IC50): 539 nM; Ki ([10]; read-out: Ki): 269 nM; IC50 ([13]; read-out: IC50): 2800 nM; Ki ([13]; read-out: Ki): 2490 nM
7 | CNC(=O)Oc1ccc2c(c1)[C@]1(C)CCN(C)[C@@H]1N2C [PHYSOSTIGMINE] | Not Active | Not Active | Not Active | Not Active | Not Active | Not Active | Not Active | Not Active | Not Active | Not Active | Not Active | Not Active | – | Not Active | Not Active | Not Active | –
